# Source: patent publication US20020076412A1, “METHODS FOR MODULATING THE IMMUNE SYSTEM” (priority 1987, published 2002)
# Where “and” joins values, the source holds several entries; their conditions need not be identical. Equal entries are not always repeated. Entries after “also recorded” stand apart in the source; their conditions may differ.
# Experiments:
# [1] = tested on: EAE (RAT); test: Ability of peptide mixed in CFA to cause EAE; type: in vivo; details: rats with EAE / rats immunized with the peptide alone in CFA
# Description: (§1) The peptides were tested for their ability to cause EAE when mixed in CFA. […] It was seen that Ala4, Ala6, Ala7, and Ala8 are poor binders to I-E, implying that these residues 4F,6N,7I, and 8V are critical in MHC binding. […] Despite their inability to bind well to I-E, peptides ala6 and ala8 block the development of EAE when mixed with native peptide in a 5:1 molar ratio with CFA (0/6 sick with native plus ala6, 2/6 with native plus ala8, compared to 11/12 with native peptide alone). These competitor peptides Ala6 and Ala8, though poor I-E binders can apparently compete with native peptide and antagonize the T-cell receptor.
# [2] = tested on: I-E; test: MHC I-E binding of substituted MBP 87-99 peptides; design: species or system rat; details: for IC50: read-out: (M*C) IC50 I-E Binding
# Text: A set of substituted peptides based on the sequence VHFFKNIVTPRT (Seq. ID No. 39), which is identical in rats, mice and human myelin basic protein (MBP), and corresponds to the I-E restricted epitope MBP 87-99 in the rat was produced. The peptides are shown in Table 1 (Seq. ID Nos. 39 to 52 respectively) MHC binding was measure say described in Smilek et al, 1991, Gautam et al 1992a&b.
# [3] = tested on: EAE; test: Competition with Ala6 and Ala5 for prevention of EAE with MBP (Table 3); type: in vivo, mice
# Description: Incidence of EAE was expressed as number of mice with clinical EAE/number of mice immunized. For the induction of EAE, MBP peptide was dissolved in phosphate buffered saline (PBS) and emulsified with complete Freund's adjuvant (CFA) in a 1:1 mixture of PBS and CFA. Mice were injected with 0.2 ml emulsion at the base of the tail. On the same day and 48 h later, pertussis toxin (List Chemicals, Campbell, Calif.) was injected intravenously. Mice were examined daily for signs of EAE. For prevention of EAE, animals were immunized with MBP (0.2 mg), or in a mixture with the competitor peptide (1 mg).
# [4] = tested on: EAE (RAT); test: Prevention of EAE, competitor mixed with native peptide 5:1 in CFA; type: in vivo; details: sick/total; competitor plus native peptide 5:1 molar ratio in CFA; native line = native peptide alone
# Description: as §1
# [5] = tested on: 87-99 T-cell line; test: Competition assay for T-cell proliferation with native peptide; type: cell-based, Lewis rat; details: blocking of proliferation of 87-99 T-cell line when given with native peptide in vitro
# Description: The second assay is a competition assay for T-cell proliferation. In this assay, antigen presenting spleen cells are first irradiated and then incubated with native MBP peptide for 2-4 hours. These cells are then washed and further cultured with T-cells reactive to MBP. Various concentrations of candidate peptide analogues are included in cultures for an additional 3 days. Following this incubation period, each culture is pulsed with 1 μCi of [^3H]-thymidine for an additional 12-18 hours. Cultures are then harvested on fiberglass filters and counted as above. Mean CPM and standard error of the mean are calculated from data determined in triplicate cultures. Peptide analogues which inhibit proliferation to approximately 25% at a concentration of 50 μM or greater are suitable for further screening.
# (§2) Proliferation Assay: Proliferative responses were determined as described previously (Zamvil, et al., Nature 317:355, 1985). 1×10^4 T-cells were cultured with 5×10^5 X-irradiated (3,000 rad) PL/J splenic APC in 0.2 ml of culture media in 96 well flat-bottomed microtiter plates (Falcon, 3072). Peptides were added to culture giving the final concentrations indicated. At 48 hours incubation, each well was pulsed with 1 μCi ^3H-thymidine and harvested 16 hours later. The mean c.p.m. thymidine incorporation was calculated for triplicate cultures. Standard deviations from replicate cultures were within 10% mean value. Proliferation assays were performed in 96-well microtiter plates. Briefly, 2×10^4 T-cells and 10^6 irradiated thymocytes/well were incubated with stimulation medium only, Con A, or antigen. The cultures were harvested onto glass fiber filters and TdR uptake was assessed by liquid scintillation. Mean cpm were calculated from triplicate wells. In some experiments, competitor peptides, or anti I-A (OX-6) or anti-I-E antibodies (OX-17) were used to evaluate which MHC molecules were used to restrict the T-cell response, or to determine whether peptides could antagonize stimulation by the native peptide.
# as §1
# [6] = tested on: 87-99 T-cell line; test: Proliferation of encephalitogenic T-cell line raised against native peptide (87-99); type: cell-based, rat; details: stimulation of T-cell line raised against native 87-99, grades negative to 4+
# Description: As noted above, candidate peptide analogues are first tested for their property of causing or inhibiting proliferation of T-cell lines. In the proliferation assay, MBP reactive T-cell lines may be used as target cells. T-cell lines are established from lymph nodes taken from rats injected with MBP. Lymph node cells are isolated and cultured for 5 to 8 days with MBP and IL-2 as a source of T-cell growth factors. Viable cells are recovered and a second round of stimulation is performed with MBP and irradiated splenocytes as a source of growth factors. After 5 to 6 passages in this manner, the proliferative potential of the cell lines are determined. MBP-reactive lines are used in the proliferation assay. In this assay, T-cell lines are cultured for three days with various concentrations of peptide analogues and irradiated, autologous splenocytes. After three days, 0.5-1.0 μCi of [^3H]-thymidine is added for 12-16 hours. Cultures are harvested and incorporated counts determined. Mean CPM and standard error of the mean are calculated from triplicate cultures.
# Development of MBP-specific T-cell lines in the rat: T-cell lines are selected from LN or SC (spinal cords) of rats immunized with guinea pig myelin basic protein or with MBP peptide (200 μg) in CFA. Supernatants from ConA-stimulated Lewis rat splenocytes are used as the source of IL-2 to expand Ag-stimulated T-cells.
# as §2
# [7] = native MBP peptide 0.2 mg mixed with competitor peptide 1 mg
# [8] = peptide alone 0.2 mg in CFA, number with clinical EAE/number immunized
Structure (SMILES),EAE (RAT) [1],IC50 [2] [µM],Prolif. ([6]; no key printed),also measured
CC[C@H](C)[C@H](NC(=O)[C@H](CC(N)=O)NC(=O)[C@H](CCCCN)NC(=O)[C@H](Cc1ccccc1)NC(=O)[C@H](Cc1ccccc1)NC(=O)[C@H](Cc1c[nH]cn1)NC(=O)[C@H](C)N)C(=O)N[C@H](C(=O)N[C@H](C(=O)N1CCC[C@H]1C(=O)N[C@@H](CCCNC(=N)N)C(=O)N[C@H](C(=O)N1CCC[C@H]1C(=O)O)[C@@H](C)O)[C@@H](C)O)C(C)C [Ala 1],6/6,–,–,–
CC[C@H](C)[C@H](NC(=O)[C@H](CC(N)=O)NC(=O)[C@H](CCCCN)NC(=O)[C@H](Cc1ccccc1)NC(=O)[C@H](Cc1ccccc1)NC(=O)[C@H](Cc1c[nH]cn1)NC(=O)[C@@H](N)C(C)C)C(=O)N[C@H](C(=O)N[C@H](C(=O)N[C@@H](C)C(=O)N[C@@H](CCCNC(=N)N)C(=O)N[C@H](C(=O)N1CCC[C@H]1C(=O)O)[C@@H](C)O)[C@@H](C)O)C(C)C [Ala 10],incapable of causing EAE and nonencephalitogenic and 0/6,–,–,–
CC[C@H](C)[C@H](NC(=O)[C@H](CC(N)=O)NC(=O)[C@H](CCCCN)NC(=O)[C@H](Cc1ccccc1)NC(=O)[C@H](Cc1ccccc1)NC(=O)[C@H](Cc1c[nH]cn1)NC(=O)[C@@H](N)C(C)C)C(=O)N[C@H](C(=O)N[C@H](C(=O)N1CCC[C@H]1C(=O)N[C@@H](CCCNC(=N)N)C(=O)N[C@@H](C)C(=O)N1CCC[C@H]1C(=O)O)[C@@H](C)O)C(C)C [Ala 12],6/6,–,–,–
CC[C@H](C)[C@H](NC(=O)[C@H](CC(N)=O)NC(=O)[C@H](CCCCN)NC(=O)[C@H](Cc1ccccc1)NC(=O)[C@H](C)NC(=O)[C@H](Cc1c[nH]cn1)NC(=O)[C@@H](N)C(C)C)C(=O)N[C@H](C(=O)N[C@H](C(=O)N1CCC[C@H]1C(=O)N[C@@H](CCCNC(=N)N)C(=O)N[C@H](C(=O)N1CCC[C@H]1C(=O)O)[C@@H](C)O)[C@@H](C)O)C(C)C [Ala 3],6/6,–,–,–
CC[C@H](C)[C@H](NC(=O)[C@H](CC(N)=O)NC(=O)[C@H](CCCCN)NC(=O)[C@H](Cc1ccccc1)NC(=O)[C@H](Cc1ccccc1)NC(=O)[C@H](C)NC(=O)[C@@H](N)C(C)C)C(=O)N[C@H](C(=O)N[C@H](C(=O)N1CCC[C@H]1C(=O)N[C@@H](CCCNC(=N)N)C(=O)N[C@H](C(=O)N1CCC[C@H]1C(=O)O)[C@@H](C)O)[C@@H](C)O)C(C)C [Ala 2],6/6,–,–,–
CC[C@H](C)[C@H](NC(=O)[C@H](C)NC(=O)[C@H](CCCCN)NC(=O)[C@H](Cc1ccccc1)NC(=O)[C@H](Cc1ccccc1)NC(=O)[C@H](Cc1c[nH]cn1)NC(=O)[C@@H](N)C(C)C)C(=O)N[C@H](C(=O)N[C@H](C(=O)N1CCC[C@H]1C(=O)N[C@@H](CCCNC(=N)N)C(=O)N[C@H](C(=O)N1CCC[C@H]1C(=O)O)[C@@H](C)O)[C@@H](C)O)C(C)C [Ala 6],0/21,> 200,–,"binding to I-E / MHC (in words) [2]: poor binders; also recorded: poor MHC binder; EAE (RAT) ([1]; listed as Ala6): incapable of causing EAE; Incidence of EAE [3, 7]: completely prevented the clinical development of EAE; Incidence of EAE ([3]; native MBP peptide 0.2 mg mixed with competitor peptide 1 mg, listed as ala 6): 0/6; Incidence of EAE [3, 8]: 0/6; EAE (RAT) [4]: 0/6; Comp Assay Prolif (RAT) [5]: plus; Comp Assay Prolif (RAT) ([5]; listed as Ala6): can block proliferation; Prolif. ([6]; key not given): weakly stimulate"
CC[C@H](C)[C@H](NC(=O)[C@H](CC(N)=O)NC(=O)[C@H](C)NC(=O)[C@H](Cc1ccccc1)NC(=O)[C@H](Cc1ccccc1)NC(=O)[C@H](Cc1c[nH]cn1)NC(=O)[C@@H](N)C(C)C)C(=O)N[C@H](C(=O)N[C@H](C(=O)N1CCC[C@H]1C(=O)N[C@@H](CCCNC(=N)N)C(=O)N[C@H](C(=O)N1CCC[C@H]1C(=O)O)[C@@H](C)O)[C@@H](C)O)C(C)C [Ala 5],0/6,–,negative,"EAE (RAT) ([1]; listed as Ala5): incapable of causing EAE; Incidence of EAE [3, 7]: had a preventative effect on EAE; Incidence of EAE ([3]; native MBP peptide 0.2 mg mixed with competitor peptide 1 mg, listed as ala 5): 2/6; Incidence of EAE [3, 8]: 0/6"
CC[C@H](C)[C@H](NC(=O)[C@H](CC(N)=O)NC(=O)[C@H](CCCCN)NC(=O)[C@H](C)NC(=O)[C@H](Cc1ccccc1)NC(=O)[C@H](Cc1c[nH]cn1)NC(=O)[C@@H](N)C(C)C)C(=O)N[C@H](C(=O)N[C@H](C(=O)N1CCC[C@H]1C(=O)N[C@@H](CCCNC(=N)N)C(=O)N[C@H](C(=O)N1CCC[C@H]1C(=O)O)[C@@H](C)O)[C@@H](C)O)C(C)C [Ala 4],0/6,> 200,negative,"binding to I-E / MHC (in words) [2]: poor binders; EAE (RAT) ([1]; listed as Ala4): incapable of causing EAE; also recorded: does not cause EAE; Prolif. ([6]; no key printed, listed as Ala4): does not stimulate"
CC[C@H](C)[C@H](NC(=O)[C@H](CC(N)=O)NC(=O)[C@H](CCCCN)NC(=O)[C@H](Cc1ccccc1)NC(=O)[C@H](Cc1ccccc1)NC(=O)[C@H](Cc1c[nH]cn1)NC(=O)[C@@H](N)C(C)C)C(=O)N[C@H](C(=O)N[C@@H](C)C(=O)N1CCC[C@H]1C(=O)N[C@@H](CCCNC(=N)N)C(=O)N[C@H](C(=O)N1CCC[C@H]1C(=O)O)[C@@H](C)O)C(C)C [Ala 9],1/6,–,negative,"EAE (RAT) ([1]; listed as Ala9): 1/6 and nonencephalitogenic; Prolif. ([6]; no key printed, listed as Ala9): weak stimulators"
CC[C@H](C)[C@H](NC(=O)[C@H](CC(N)=O)NC(=O)[C@H](CCCCN)NC(=O)[C@H](Cc1ccccc1)NC(=O)[C@H](Cc1ccccc1)NC(=O)[C@H](Cc1c[nH]cn1)NC(=O)[C@@H](N)C(C)C)C(=O)N[C@H](C(=O)N[C@H](C(=O)N1CCC[C@H]1C(=O)N[C@@H](CCCNC(=N)N)C(=O)N[C@H](C(=O)N[C@@H](C)C(=O)O)[C@@H](C)O)[C@@H](C)O)C(C)C [Ala 13],3/6,10,–,–
CC[C@H](C)[C@H](NC(=O)[C@H](CC(N)=O)NC(=O)[C@H](CCCCN)NC(=O)[C@H](Cc1ccccc1)NC(=O)[C@H](Cc1ccccc1)NC(=O)[C@H](Cc1c[nH]cn1)NC(=O)[C@@H](N)C(C)C)C(=O)N[C@H](C(=O)N[C@H](C(=O)N1CCC[C@H]1C(=O)N[C@@H](C)C(=O)N[C@H](C(=O)N1CCC[C@H]1C(=O)O)[C@@H](C)O)[C@@H](C)O)C(C)C [Ala 11],4/6,20,negative,–
